Test results published in patent US11692028B2, “Map kinase pathway targets for the treatment of Marfan syndrome” (The Johns Hopkins University, priority 2017, dated 2023).

What was measured:
[1] = tested on: 129 MFS mice (Fbn1C1039G/+ on 129S6/SvEvTac background); assay: Aortic root growth by echocardiography in drug-treated 129 MFS mice; assay type: in vivo, mouse; settings: for aortic root growth: FIG. 2B
Procedure: Losartan was dissolved in drinking water and filtered to reach a concentration of 0.6 g/L, giving an estimated daily dose of 60 mg/kg/day, as described previously (Habashi, J. P. et al. Science 312, 117-21 (2006)). Mice were started on losartan at 2 months of age and continued for 8 months. Placebo-treated animals received regular drinking water. RDEA119 was reconstituted in 10% 2-hydroxypropyl-beta-cyclodextrin (Sigma-Aldrich, Mo., USA) dissolved in PBS, and administered twice daily by oral gavage at a dose of 25 mg/kg, as described previously (Holm, T. M. et al. Science 15, 358-61 (2011)). Treatment was initiated at 2 months of age and continued for 2 months. 10% 2-hydroxypropyl-beta-cyclodextrin dissolved in PBS was administered as a control. Erlotinib was reconstituted in 1% methylcellulose (Sigma-Aldrich) dissolved in PBS, and administered daily by oral gavage at a dose of 50 mg/kg. Treatment was initiated at 2 months of age and continued for 2 months. 1% methylcellulose dissolved in PBS was administered as a control.
Mouse echocardiography: Nair hair removal cream was used on all mice the day prior to echocardiography. All echocardiograms were performed on awake, unsedated mice using the VisualSonics Vevo 2100 imaging system and a 30 MHz transducer (Fujifilm VisualSonics, ON, Canada). The aorta was imaged using a parasternal, long-axis view. Three separate measurements of the maximal internal dimension at the sinus of Valsalva and proximal ascending aorta were made from distinct captured images and averaged. All imaging and measurements were performed blinded to genotype and treatment arm.

[2] = tested on: pSmad2, pErk1/2, pp38, pEgfr; assay: Western blot analysis of the aortic root of treated 129 MFS mice; assay type: in vivo, mouse; settings: for signaling cascade activation in aortic root (Western blot): treated 129 MFS mice at 4 months of age, FIG. 2E, 3G
Procedure: Losartan was dissolved in drinking water and filtered to reach a concentration of 0.6 g/L, giving an estimated daily dose of 60 mg/kg/day, as described previously (Habashi, J. P. et al. Science 312, 117-21 (2006)). Mice were started on losartan at 2 months of age and continued for 8 months. Placebo-treated animals received regular drinking water. RDEA119 was reconstituted in 10% 2-hydroxypropyl-beta-cyclodextrin (Sigma-Aldrich, Mo., USA) dissolved in PBS, and administered twice daily by oral gavage at a dose of 25 mg/kg, as described previously (Holm, T. M. et al. Science 15, 358-61 (2011)). Treatment was initiated at 2 months of age and continued for 2 months. 10% 2-hydroxypropyl-beta-cyclodextrin dissolved in PBS was administered as a control. Erlotinib was reconstituted in 1% methylcellulose (Sigma-Aldrich) dissolved in PBS, and administered daily by oral gavage at a dose of 50 mg/kg. Treatment was initiated at 2 months of age and continued for 2 months. 1% methylcellulose dissolved in PBS was administered as a control. Mice that were sacrificed for Western Blot analysis had their proximal ascending aortas immediately dissected, flash frozen in liquid nitrogen and stored at -80° C. until further processing. Protein was extracted using the reagents and protocol from a Total Protein Extraction Kit containing protease inhibitor and Protein Phosphatase Inhibitor Cocktail (Millipore, Mass., USA). Aortas were homogenized using a pellet pestle motor (Kimble-Kontes, N.J., USA) as per the extraction kit protocol. Samples were then stored once more at -80° C. until Western blot analysis was performed. […] PBS-T). Equal protein loading of samples was determined by a protein assay (Bio-Rad, Calif., USA) and confirmed by probing with an antibody against β-Actin (Sigma-Aldrich #A5316). […] Blots were then washed in PBS-T, developed using SuperSignal West Femto HRP substrate (Pierce Scientific, Ill., USA), exposed to BioMax Scientific Imaging Film (Sigma), and quantified using ImageJ analysis software (NIH, Md., USA).

[3] = tested on: Fbn1C1039G/+ mice (MFS mice); settings: cited from earlier work; for aortic disease in MFS mice: literature (Habashi 2006; Holm 2011; Habashi 2011; Doyle 2015)
[4] = tested on: 129 MFS mice (Fbn1C1039G/+ on 129S6/SvEvTac background); assay: Survival / premature lethality from aortic dissection in 129 MFS mice; assay type: in vivo, mouse; settings: losartan, up to 8 months of treatment, FIG. 2C
From the text: Mice were cared for under compliance with the Animal Care and Use Committee of the Johns Hopkins University School of Medicine. Fbn1^C1039G/+ mice on a pure C57BL/6J background were already onsite. Mice on a pure 129S6/SvEvTac background were obtained from Taconic Biosciences (Rensselaer County, N.Y., USA). The Fbn1^C1039G/+ mice on a pure C57BL/6J background were bred into a pure 129S6/SvEvTac background and backcrossed for >10 generations. Mice haploinsufficient or knockout for Mmp17 (B6.129P2-Mmp17^rm1Dg^en/J; #005824), Map2k6 (B6.129S1-Map2k6^tm1Flv/J; #008382) and Map3k4 (B6.129S6-Map3k4^tm1Flv/J; #008375) were obtained from the Jackson Laboratory (Bar Harbor, Me., USA), and bred to Fbn1C1039G/+ mice. Animals were checked daily for death and all mice found dead were immediately autopsied to assess for evidence of aortic dissection. Mice that were sacrificed were done so using a lethal dose of ketamine and acepromazine (1 ml of 10 mg/ml acepromazine in 10 mls of 100 mg/ml ketamine; MWI Vet, ID, USA). At the time of sacrifice, mice underwent immediate laparotomy and descending abdominal aortic transection. Phosphate buffered saline (PBS) was infused through the right and left ventricles to flush out the blood. […]

patients with MFS = settings: literature (Lacro et al., NEJM 371, 2061); cited from earlier work
[5] = tested on: TGFβ signal transduction (p-SMAD2); settings: measured by p-SMAD2 western blot analysis; cited from earlier work
[6] = tested on: TGFβ induction in vascular tissues; settings: literature; cited from earlier work
[7] = oral gavage from 2 to 4 months of age (RDEA119 25 mg/kg twice daily; erlotinib 50 mg/kg daily), 3F

| SMILES | all aortic parameters (aortic root size, post-natal aortic root growth, premature lethality from dissection) [1] | aortic root growth [1, 7] | signaling cascade activation in aortic root (Western blot) [2] | aortic disease in MFS mice [3] | further results |
| --- | --- | --- | --- | --- | --- |
| COc1cc(F)c(F)c(Nc2ccc(I)cc2F)c1NS(=O)(=O)C1(C[C@H](O)CO)CC1 [RDEA119] | fully rescued | reduced aortic root growth to a rate equal to that of WT animals | selective reduction in noncanonical (Erk1/2, p38) cascades | can suppress aortic disease in MFS mice | – |
| CCCCc1nc(Cl)c(CO)n1Cc1ccc(-c2ccccc2-c2nn[nH]n2)cc1 [losartan] | fully rescued | – | – | can suppress aortic disease in MFS mice | aortic root growth ([1]; losartan 0.6 g/L in drinking water (est. 60 mg/kg/day), growth from 2 to 6 months): reduced aortic root growth to a rate equal to that of WT animals; premature lethality (survival) [4]: ameliorated premature lethality; TGFβ signaling cascades in aortic root (Western blot) ([2]; losartan-treated 129 MFS mice at 10 months of age, FIG. 2D): reduction in both canonical (Smad2) and noncanonical (Erk1/2, p38) TGFβ signaling cascades; multiple phenotypic manifestations (aortic aneurysm, developmental emphysema, mitral valve disease, skeletal muscle myopathy) ([3]; Fbn1C1039G/+ mice, in association with blunted Smad2/3 activation, literature): can be attenuated; aortic root growth in patients with MFS (patients with MFS): some degree of rescue of aortic root growth |
| Fc1ccc(Cl)cc1-c1nc(Nc2ccncc2)c2nccnc2n1 [SD-208] | – | – | – | – | TGFβ signal transduction [5]: inhibits TGFβ signal transduction in a dose-dependent fashion |
| C#Cc1cccc(Nc2ncnc3cc(OCCOC)c(OCCOC)cc23)c1 [erlotinib] | – | abrogated aortic root growth | reduced activation of Egfr, Erk1/2, and p38 | – | Ang-II infusion-mediated TGFβ induction in vascular tissues [6]: can abrogate Ang-II infusion-mediated TGFβ induction in vascular tissues |
